Like-named read-outs stand apart in the source and are kept apart here.
Columns and labels:
PI3Kδ = target: T1, PI3Kδ (Homo sapiens, UniProt O00329); test: Enzymatic activity of PI3K isoforms, TR-FRET assay (PIP3 formation); type: biochemical; conditions: PI3Kδ; TR-FRET, 2×Km ATP, 10 μM PIP2; read-out: IC50
T1 construct: made in house
How it was run: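 Recombinant heterodimeric class I PI3K; PIP3 product measured by TR-FRET competition with labelled PIP3 for Eu-GRP-1 PH domain. Reaction 30 min at 25 °C, stopped with 10 mM EDTA.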

[1] = Hepatocyte stability, 0.01% final DMSO, 1 μM substrate (t1/2^b); type: in vitro ADME; conditions: human, hepatocytes, TA with 0.01% final DMSO
Method: Alternatively, assay reagents and/or conditions can be modified in determining the inhibitory activities to PI3K isomers. In additional studies, similar assay using TA and 0.01% final DMSO concentration were incubated with 1 million hepatocytes/mL at 1 μM substrate in duplicate. The incubation was carried out at 37° C. with 5% CO2 and saturating humidity.

basophils = test: Basophil activation in human whole blood (Flow2 CAST kit, CD63 positive cells); type: cell-based
How it was run: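 Human whole blood (K2-EDTA) preincubated 60 minutes at 37° C with compound serial dilutions or DMSO (0.3% final), then stimulated with anti-FcεRI mAb or fMLP and stained for CD63/CCR3. Percent CD63+ among ≥200 CCR3-high basophils by flow cytometry, normalized to stimulated vehicle as 100%. EC50 from four-parameter fits, geometric means in nM, concentrations corrected for reagent dilution.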

[2] = 1 μM substrate, samples at 0, 1, 3, 6 hours, read-out: human hepatocyte t½^b
[3] = Homo sapiens, basophils activated with anti-FcεRI mAb or fMLP, geometric mean
[4] = basophils activated with anti-FcεRI mAb or fMLP, geometric mean

T1 sequence (O00329 whole entry, canonical isoform): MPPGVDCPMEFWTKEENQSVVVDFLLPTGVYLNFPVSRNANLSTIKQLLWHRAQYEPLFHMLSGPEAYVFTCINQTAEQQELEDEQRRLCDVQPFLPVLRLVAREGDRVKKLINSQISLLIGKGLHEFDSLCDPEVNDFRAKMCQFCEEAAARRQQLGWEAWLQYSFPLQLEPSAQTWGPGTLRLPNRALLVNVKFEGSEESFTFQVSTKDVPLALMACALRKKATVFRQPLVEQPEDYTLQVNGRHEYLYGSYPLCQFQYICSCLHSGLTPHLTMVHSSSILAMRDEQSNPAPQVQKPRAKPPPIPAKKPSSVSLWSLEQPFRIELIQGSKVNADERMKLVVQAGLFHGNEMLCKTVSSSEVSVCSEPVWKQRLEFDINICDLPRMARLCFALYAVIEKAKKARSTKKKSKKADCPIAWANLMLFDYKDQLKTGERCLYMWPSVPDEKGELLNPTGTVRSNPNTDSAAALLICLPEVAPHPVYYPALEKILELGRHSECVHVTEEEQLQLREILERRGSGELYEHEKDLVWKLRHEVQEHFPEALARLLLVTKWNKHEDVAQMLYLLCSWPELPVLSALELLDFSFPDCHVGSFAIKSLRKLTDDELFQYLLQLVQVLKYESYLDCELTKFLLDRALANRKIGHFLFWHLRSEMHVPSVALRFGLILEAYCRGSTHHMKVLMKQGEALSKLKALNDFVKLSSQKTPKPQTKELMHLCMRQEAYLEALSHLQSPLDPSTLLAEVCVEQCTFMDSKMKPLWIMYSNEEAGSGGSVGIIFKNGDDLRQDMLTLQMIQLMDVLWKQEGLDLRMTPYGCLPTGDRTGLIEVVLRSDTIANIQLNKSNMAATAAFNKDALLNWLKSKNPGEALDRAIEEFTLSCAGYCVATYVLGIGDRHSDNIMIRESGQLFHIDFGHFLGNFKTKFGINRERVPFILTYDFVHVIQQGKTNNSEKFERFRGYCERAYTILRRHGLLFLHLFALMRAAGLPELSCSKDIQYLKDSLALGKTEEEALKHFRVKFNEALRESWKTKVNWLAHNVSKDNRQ
T1 sequence (P27986 whole entry partner, canonical isoform): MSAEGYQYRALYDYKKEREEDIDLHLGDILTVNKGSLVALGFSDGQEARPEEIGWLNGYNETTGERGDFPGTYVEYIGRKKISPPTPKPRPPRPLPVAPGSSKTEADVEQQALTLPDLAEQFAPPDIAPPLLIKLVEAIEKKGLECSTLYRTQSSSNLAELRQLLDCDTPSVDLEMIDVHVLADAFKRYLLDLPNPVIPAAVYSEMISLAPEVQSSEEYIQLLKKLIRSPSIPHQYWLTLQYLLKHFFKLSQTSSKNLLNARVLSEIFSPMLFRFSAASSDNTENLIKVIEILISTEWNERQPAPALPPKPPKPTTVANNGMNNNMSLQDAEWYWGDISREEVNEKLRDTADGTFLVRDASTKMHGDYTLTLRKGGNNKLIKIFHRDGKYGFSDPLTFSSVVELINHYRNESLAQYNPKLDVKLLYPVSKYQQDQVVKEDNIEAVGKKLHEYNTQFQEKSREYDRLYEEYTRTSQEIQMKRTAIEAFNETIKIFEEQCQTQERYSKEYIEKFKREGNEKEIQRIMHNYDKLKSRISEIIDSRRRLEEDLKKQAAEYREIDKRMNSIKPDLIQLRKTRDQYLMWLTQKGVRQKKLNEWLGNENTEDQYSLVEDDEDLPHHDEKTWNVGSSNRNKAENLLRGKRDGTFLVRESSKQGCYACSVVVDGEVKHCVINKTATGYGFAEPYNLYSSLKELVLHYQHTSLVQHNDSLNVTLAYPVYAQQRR

Structure (SMILES) | IC50 (PI3Kδ) [nM] | half-life at 1 μM [1, 2] [h] | EC50 (basophils; [3]) [nM] | EC50 (basophils; [4]) [nM] | half-life at 1 μM ([1]; human hepatocytes, read-out: t1/2^b) [h] | EC50 (basophils; Homo sapiens, basophil activation) [nM]
CC(Nc1nc(N)nc(N)c1C#N)c1nc2cccc(Cl)c2c(=O)n1-c1cccc(Cl)c1 (single isomer, unassigned) [Compound 8a] | < 1 | 3 to 6 | 1 to 10 | – | – | –
CC(Nc1nc(N)nc(N)c1C#N)c1nc2cccc(Cl)c2c(=O)n1-c1cccc(C#N)c1 (single isomer, unassigned) [Compound 12a] | 1 to 10 | > 10 | 1 to 10 | – | – | –
CC(Nc1nc(N)nc(N)c1C#N)c1nc2ccc(F)cc2c(=O)n1-c1cccc(C#N)c1 (single isomer, unassigned) [Compound 13a] | 10 to 50 | > 10 | 1 to 10 | – | – | –
CC(Nc1nc(N)nc(N)c1C#N)c1nc2c(Cl)cccc2c(=O)n1-c1ccccc1 (single isomer, unassigned) [Compound 22a] | 1 to 10 | > 10 | 1 to 10 | – | – | –
CCC(Nc1nc(N)nc(N)c1C#N)c1nc2ccc(F)cc2c(=O)n1-c1cc(F)cc(F)c1 (single isomer, unassigned) [Compound 26a] | 10 to 50 | > 10 | 1 to 10 | – | – | –
CC(Nc1nc(N)nc(N)c1C#N)c1nc2ccccc2c(=O)n1-c1cc(F)cc(F)c1 (single isomer, unassigned) [Compound 28a] | 10 to 50 | > 10 | 1 to 10 | – | – | –
CC(Nc1nc(N)nc(N)c1C#N)c1nc2ccc(F)c(F)c2c(=O)n1-c1cc(F)cc(F)c1 (single isomer, unassigned) [Compound 29a] | 10 to 50 | > 10 | 1 to 10 | – | – | –
CC(Nc1nc(N)nc(N)c1C#N)c1nc2cccc(Cl)c2c(=O)n1-c1cccc(C(F)(F)F)c1 (single isomer, unassigned) [Compound 47a] | 1 to 10 | 3 to 6 | 1 to 10 | – | – | –
CC(Nc1nc(N)nc(N)c1C#N)c1nc2c(C(F)F)cccc2c(=O)n1-c1ccccc1 (single isomer, unassigned) [Compound 56a] | 10 to 50 | 6 to 10 | 1 to 10 | – | – | –
CC(Nc1nc(N)nc(N)c1C#N)c1nc2cccc(C(F)F)c2c(=O)n1-c1cccc(C#N)c1 (single isomer, unassigned) [Compound 63a] | 1 to 10 | > 10 | 1 to 10 | – | – | –
CC(Nc1nc(N)nc(N)c1C#N)c1nc2c(Cl)cc(F)cc2c(=O)n1-c1cc(F)cc(F)c1 (single isomer, unassigned) [Compound 89a] | 1 to 10 | 6 to 10 | 1 to 10 | – | – | –
CC(Nc1nc(N)nc(N)c1C#N)c1nc2cccc(C(N)=O)c2c(=O)n1-c1cc(F)cc(F)c1 (single isomer, unassigned) [Compound 91a] | 10 to 50 | > 10 | 10 to 50 | – | – | –
CC(Nc1nc(N)nc(N)c1C#N)c1nc2cccc(S(C)(=O)=O)c2c(=O)n1-c1cc(F)cc(C(F)F)c1 (single isomer, unassigned) [Compound 98a] | 10 to 50 | 3 to 6 | > 50 | – | – | –
COc1cccc(-n2c(C(C)Nc3nc(N)nc(N)c3C#N)nc3cccc(Cl)c3c2=O)c1C (single isomer, unassigned) [Compound 109a-2] | < 1 | 1 to 3 | 1 to 10 | – | – | –
CC(Nc1nc(N)nc(N)c1C#N)c1nc2cccc(C#N)c2c(=O)n1-c1cc(F)cc(F)c1 (single isomer, unassigned) [Compound 112a] | 1 to 10 | > 10 | 1 to 10 | – | – | –
CC(Nc1nc(N)nc(N)c1C#N)c1nc2cccc(Cl)c2c(=O)n1-c1cccc(CC(F)F)c1 (single isomer, unassigned) [Compound 120a] | 1 to 10 | 1 to 3 | 1 to 10 | – | – | –

Structure (SMILES) | IC50 (PI3Kδ) [nM] | half-life at 1 μM [1, 2] [h] | EC50 (basophils; [3]) [nM] | EC50 (basophils; [4]) [nM] | half-life at 1 μM ([1]; human hepatocytes, read-out: t1/2^b) [h] | EC50 (basophils; Homo sapiens, basophil activation) [nM]
CC(Nc1nc(N)nc(N)c1Cl)c1nc2c(F)ccc(Cl)c2c(=O)n1-c1ccccc1 (single isomer, unassigned) [Compound 127a] | 1 to 10 | 1 to 3 | 1 to 10 | – | – | –
COCC(Nc1nc(N)nc(N)c1C#N)c1nc2cccc(Cl)c2c(=O)n1-c1cc(F)cc(F)c1 (single isomer, unassigned) [Compound 135a] | 1 to 10 | 1 to 3 | 1 to 10 | – | – | –
CC(Nc1nc(N)nc(N)c1C#N)c1nc2ccc(F)c(Cl)c2c(=O)n1-c1cc(F)cc(F)c1 (single isomer, unassigned) [Compound 140a] | 1 to 10 | 3 to 6 | 1 to 10 | – | – | –
CC(Nc1nc(N)nc(N)c1C#N)c1nc2cccc(Cl)c2c(=O)n1-c1c(F)cccc1F (single isomer, unassigned) [Compound 145a] | 1 to 10 | 6 to 10 | 1 to 10 | – | – | –
CC(Nc1nc(N)nc(N)c1C#N)c1nc2c(F)ccc(F)c2c(=O)n1-c1cccc(C#N)c1 (single isomer, unassigned) [Compound 149a] | 10 to 50 | 6 to 10 | 1 to 10 | – | – | –
CCC(Nc1nc(N)nc(N)c1C#N)c1nc2c(F)ccc(F)c2c(=O)n1-c1ccccc1 (single isomer, unassigned) [Compound 150a] | 1 to 10 | 3 to 6 | 1 to 10 | – | – | –
CCC(Nc1nc(N)nc(N)c1C#N)c1nc2c(F)ccc(F)c2c(=O)n1-c1cccc(F)c1 (single isomer, unassigned) [Compound 151a] | 1 to 10 | 3 to 6 | 1 to 10 | – | – | –
CCC(Nc1nc(N)nc(N)c1C#N)c1nc2c(F)ccc(F)c2c(=O)n1-c1cccc(C#N)c1 (single isomer, unassigned) [Compound 152a] | 10 to 50 | 3 to 6 | 1 to 10 | – | – | –
CC(Nc1nc(N)nc(N)c1C#N)c1nc2c(C#N)cc(F)cc2c(=O)n1-c1ccccc1 (single isomer, unassigned) [Compound 155a] | 1 to 10 | > 10 | 10 to 50 | – | – | –
CC(Nc1nc(N)nc(N)c1C#N)c1nc2c(C#N)cccc2c(=O)n1-c1cccc(C(F)F)c1 (single isomer, unassigned) [Compound 160a] | 1 to 10 | 3 to 6 | 1 to 10 | – | – | –
CCCC(Nc1nc(N)nc(N)c1C#N)c1nc2cccc(F)c2c(=O)n1-c1cc(F)cc(F)c1 (single isomer, unassigned) [Compound 175a] | 1 to 10 | 6 to 10 | 1 to 10 | – | – | –
COc1cc(F)cc(-n2c(C(C)Nc3nc(N)nc(N)c3C#N)nc3cccc(Cl)c3c2=O)c1 (single isomer, unassigned) [Compound 205a] | 1 to 10 | – | – | < 1 | – | –
COc1cccc(-n2c(C(C)Nc3nc(N)nc(N)c3C#N)nc3cccc(Cl)c3c2=O)c1 (single isomer, unassigned) [Compound 206a] | < 1 | – | – | < 1 | – | –
CC[C@H](C)[C@H](Nc1nc(N)nc(N)c1C#N)c1nc2cccc(Cl)c2c(=O)n1-c1cc(F)cc(F)c1 [Compound 164a, 2,4-diamino-6-(((1S,2S)-1-(5-chloro-3-(3,5-difluorophenyl)-4-oxo-3,4-dihydroquinazolin-2-yl)-2-methylbutyl)amino)pyrimidine-5-carbonitrile] | 1 to 10 | – | > 50 | – | – | –
C[C@H](Nc1ncnc(N)c1C#N)c1nc2cccc(F)c2c(=O)n1-c1cccc(F)c1 [Compound V, reference compound] | – | – | – | – | < 1 | > 4

Source: patent US9029384B2, “Phosphatidylinositol 3-kinase inhibitors” (Gilead Calistoga LLC, priority 2012, dated 2015)
